In patent US11091428B2 (HAPLOGEN GMBH, priority 2016, dated 2021):

Experiments:
[1] = system: picornaviruses (CVB1, HRV-A2, HRV-A23, EV-68); assay: Anti-picornavirus cytopathic effect (CPE) reduction assay on HeLa H1 cells; assay type: cell-based; details: Enterovirus B, HeLa H1, 48 h, HeLa H1 cells, 48 h, category from averaging the EC50 values from four picornaviruses (CVB1, HRV-A2, HRV-A23, EV68); read-out: EC50 values of the compounds determined in the anti-picornavirus assay
In short: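 HeLa H1 cells pre-treated 2 h with serially diluted compound in DMEM/2% FBS, then infected at an MOI giving full CPE in 2 days. After 48 h at 37° C, viability read by CellTiterBlue fluorescence (ex 560/em 590 nm), normalised to infected and uninfected vehicle controls; EC50 by non-linear regression, category from mean of four viruses.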

PLA2G16 = target: T1, PLA2G16 (Homo sapiens, UniProt P53816); assay: Enzyme activity assay for PLA2G16 (Red/Green BODIPY PC-A2 fluorescence); assay type: biochemical; details: His-tagged PLA2G16, 4 min pre-incubation, 2 nM to 50 μM; read-out: IC50 values of the compounds determined in the enzyme activity assay for PLA2G16
T1 construct: Hexa-His (N); made in house; host or cells: E. coli BL21(DE3)
T1 sequence (P53816 1-162): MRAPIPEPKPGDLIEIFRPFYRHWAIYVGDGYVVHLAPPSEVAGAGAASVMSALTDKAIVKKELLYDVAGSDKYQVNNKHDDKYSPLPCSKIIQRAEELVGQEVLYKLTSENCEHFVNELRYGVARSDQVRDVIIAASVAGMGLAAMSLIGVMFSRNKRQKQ
In short: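 N-His-tagged human PLA2G16 from E. coli, Ni-NTA purified. Pre-incubated 4 min with compound (2 nM–50 μM final) in pH 8.5 Tris/NaCl buffer with 5 mM glutathione, then BODIPY PC-A2 in DOPC/DOPG/cholesterol vesicles added. Fluorescence (ex 480/em 530 nm) increase over 10 min taken as activity; IC50 by non-linear regression.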

In the case of `CC(C(=O)C(=O)NCC1CCCCC1)N(C=O)CC1CCN(C(=O)OC(C)(C)C)CC1` (stereo not shown) [FP 53, tert-Butyl 4-[(N-{1-[(cyclohexylmethyl)carbamoyl]-1-oxopropan-2-yl}formamido)-methyl]piperidine-1-carboxylate], the EC50 [1] is reported as 1000 to 10000 nM and the IC50 (PLA2G16) is reported as < 1000 nM.
With `CCNC(=O)C(=O)C1N(Cc2ccccc2)C(=O)CC12CC2` (stereo not shown) [FP 348, 2-{5-Benzyl-6-oxo-5-azaspiro[2.4]heptan-4-yl}-N-ethyl-2-oxoacetamide] the EC50 [1] was < 1000 nM and the IC50 (PLA2G16) was < 1000 nM.
In the case of `CCCC(NC(=O)c1ccccc1)C(=O)C(=O)NC1CC1` (stereo not shown) [FP 184, N-Cyclopropyl-2-oxo-3-(phenylformamido)hexanamide], the EC50 [1] is reported as > 10000 nM and the IC50 (PLA2G16) is reported as < 1000 nM.
`CCCC(NS(=O)(=O)c1ccccc1)C(=O)C(=O)NCC1CC1` (stereo not shown) [FP 217, 3-Benzenesulfonamido-N-(cyclopropylmethyl)-2-oxohexanamide] was tested, and the EC50 [1] was 1000 to 10000 nM and the IC50 (PLA2G16) was < 1000 nM.
`O=C(NC1CC1)C(=O)C1CCC(=O)N1Cc1ccc(Cl)c(F)c1` (stereo not shown) [FP 232, 2-{1-[(4-Chloro-3-fluorophenyl)methyl]-5-oxopyrrolidin-2-yl}-N-cyclopropyl-2-oxoacetamide] was tested, and the EC50 [1] was 1000 to 10000 nM and the IC50 (PLA2G16) was < 1000 nM.
`CCCC(NC(=O)c1ccccc1)C(=O)C(=O)NCC1CC1` (stereo not shown) [FP 154, N-(Cyclopropylmethyl)-2-oxo-3-(phenylformamido)hexanamide] was tested, and the EC50 [1] was 1000 to 10000 nM and the IC50 (PLA2G16) was < 1000 nM.
`Cc1cccc(CN2C(=O)CCC2C(=O)C(=O)NC2CC2)c1` (stereo not shown) [FP 269, N-Cyclopropyl-2-{1-[(3-methylphenyl)methyl]-5-oxopyrrolidin-2-yl}-2-oxoacetamide] was tested, and the EC50 [1] was 1000 to 10000 nM and the IC50 (PLA2G16) was < 1000 nM.
With `O=C(NC1CCN(S(=O)(=O)C2CCCC2)CC1)C(=O)[C@H]1CCC(=O)N1Cc1ccccc1` [FP 321, 2-[(2R)-1-Benzyl-5-oxopyrrolidin-2-yl]-N-[1-(cyclopentanesulfonyl)piperidin-4-yl]-2-oxoacetamide] the EC50 [1] was < 1000 nM and the IC50 (PLA2G16) was < 1000 nM.
For `CC(C(=O)C(=O)NCC1CC1)N(C=O)Cc1ccccc1` (stereo not shown) [FP 37, 3-(N-Benzylformamido)-N-(cyclopropyylmethyl)-2-oxobutanamide], the EC50 [1] was < 1000 nM and the IC50 (PLA2G16) was < 1000 nM.
In the case of `CC(C)NC(=O)[C@H]1C[C@@H](NC(=O)C(=O)[C@H]2CCC(=O)N2Cc2ccccc2)C1` [FP 305, (1 s,3s)-3-{2-[(2R)-1-Benzyl-5-oxopyrrolidin-2-yl]-2-oxoacetamido}-N-(propan-2-yl)cyclobutane-1-carboxamide], the EC50 [1] is reported as 1000 to 10000 nM and the IC50 (PLA2G16) is reported as < 1000 nM.
For `CCC1CC(=O)N(Cc2ccccc2)C1C(=O)C(=O)NC1CCOCC1` (stereo not shown) [FP 344, 2-(1-Benzyl-3-ethyl-5-oxopyrrolidin-2-yl)-N-(oxan-4-yl)-2-oxoacetamide], the EC50 [1] was < 1000 nM and the IC50 (PLA2G16) was < 1000 nM.
In the case of `Cc1ccccc1CN1C(=O)CCC1C(=O)C(=O)NC1CC1` (stereo not shown) [FP 261, N-Cyclopropyl-2-{1-[(2-methylphenyl)methyl]-5-oxopyrrolidin-2-yl}-2-oxoacetamide], the EC50 [1] is reported as 1000 to 10000 nM and the IC50 (PLA2G16) is reported as < 1000 nM.
With `O=C(NCC1CC1)C(=O)C1CCC(=O)N1c1ccccc1` (stereo not shown) [FP 264, N-(Cyclopropylmethyl)-2-oxo-2-(5-oxo-1-phenylpyrrolidin-2-yl)acetamide] the EC50 [1] was > 10000 nM and the IC50 (PLA2G16) was 1000 to 10000 nM.
For `Cc1cccc(C(=O)NC(C)C(=O)C(=O)NCC2CC2)c1` (stereo not shown) [FP 171, N-(Cyclopropylmethyl)-3-[(3-methylphenyl)formamido]-2-oxobutanamide], the EC50 [1] was > 10000 nM and the IC50 (PLA2G16) was 1000 to 10000 nM.
For `CCC(NC(=O)c1cccnc1)C(=O)C(=O)NCC1CCCCC1` (stereo not shown) [FP 210, N-(Cyclohexylmethyl)-2-oxo-3-[(pyridin-3-yl)formamido]pentanamide], the EC50 [1] was 1000 to 10000 nM and the IC50 (PLA2G16) was < 1000 nM.
In the case of `CC(NC(=O)c1ccccc1)C(=O)C(=O)NCC1CCC1` (stereo not shown) [FP 181, N-(Cyclobutylmethyl)-2-oxo-3-(phenylformamido)butanamide], the EC50 [1] is reported as 1000 to 10000 nM and the IC50 (PLA2G16) is reported as < 1000 nM.
For `CC(C(=O)C(=O)NC(C)(C)c1cccc(Cl)c1)N(C=O)C1CCCCC1` (stereo not shown) [FP 27, N[2-(3-Chlorophenyl)propan-2-yl]-3-(N-cyclohexylformamido)-2-oxobutanamide], the EC50 [1] was < 1000 nM and the IC50 (PLA2G16) was < 1000 nM.
For `CC(C)C(=O)N1CCC(NC(=O)C(=O)[C@H]2CCC(=O)N2Cc2ccccc2)CC1` [FP 315, 2-[(2R)-1-Benzyl-5-oxopyrrolidin-2-yl]-N-[1-(2-methylpropanoyl)piperidin-4-yl]-2-oxoacetamide], the EC50 [1] was 1000 to 10000 nM and the IC50 (PLA2G16) was < 1000 nM.
With `CC(NS(=O)(=O)c1ccc(F)cc1)C(=O)C(=O)NCC1CC1` (stereo not shown) [FP 219, N-(Cyclopropylmethyl)-3-(4-fluorobenzenesulfonamido)-2-oxobutanamide] the EC50 [1] was 1000 to 10000 nM and the IC50 (PLA2G16) was < 1000 nM.
`CC(C)[C@H](C(=O)C(=O)NCC1CC1)N(C=O)CC(C)(C)C` (single isomer, unassigned) [FP 32] was tested, and the EC50 [1] was > 10000 nM and the IC50 (PLA2G16) was < 1000 nM.
In the case of `CC(C)C(=O)N(C)CCNC(=O)C(=O)[C@H]1CCC(=O)N1Cc1ccccc1` [FP 333, N-(2-{2-[(2R)-1-Benzyl-5-oxopyrrolidin-2-yl]-2-oxoacetamido}ethyl)-N,2-dimethyl-propanamide], the EC50 [1] is reported as 1000 to 10000 nM and the IC50 (PLA2G16) is reported as < 1000 nM.
For `O=C(NCC1CC1)C(=O)C1CCC(=O)N1Cc1ccc(Cl)cc1` (stereo not shown) [FP 203, 2-{1-[(4-Chlorophenyl)methyl]-5-oxopyrrolidin-2-yl}-N-(cyclopropylmethyl)-2-oxoacetamide], the EC50 [1] was < 1000 nM and the IC50 (PLA2G16) was < 1000 nM.
In the case of `O=C(NC1CN(C(=O)C2CCCC2)C1)C(=O)[C@H]1CCC(=O)N1Cc1ccccc1` [FP 319, 2-[(2R)-1-Benzyl-5-oxopyrrolidin-2-yl]-N-(1-cyclopentanecarbonylazetidin-3-yl)-2-oxoacetamide], the EC50 [1] is reported as 1000 to 10000 nM and the IC50 (PLA2G16) is reported as < 1000 nM.
`CC(C)C(C(=O)C(N)=O)N(C=O)Cc1ccccc1` (stereo not shown) [FP 198, 3-(N-Benzylformamido)-4-methyl-2-oxopentanamide] was tested, and the EC50 [1] was > 10000 nM and the IC50 (PLA2G16) was 1000 to 10000 nM.
In the case of `COCCC(C(=O)C(=O)NCC1CC1)N(C=O)Cc1ccccc1` (stereo not shown) [FP 70, 3-(N-Benzylformamido)-MN-(cyclopropylmethyl)-5-methoxy-2-oxopentanamide], the EC50 [1] is reported as 1000 to 10000 nM and the IC50 (PLA2G16) is reported as < 1000 nM.
For `CCNC(=O)C(=O)[C@H]1CCC(=O)N1Cc1ccccc1` [FP 265, 2-[(2R)-1-Benzyl-5-oxopyrrolidin-2-yl]-N-ethyl-2-oxoacetamide], the EC50 [1] was < 1000 nM and the IC50 (PLA2G16) was < 1000 nM.
`C[C@H]1CC(=O)N(Cc2ccccc2)[C@H]1C(=O)C(=O)NC1CC1` (single isomer, unassigned) [FP 341] was tested, and the EC50 [1] was 1000 to 10000 nM and the IC50 (PLA2G16) was < 1000 nM.
With `O=C(NC1CC1)C(=O)C1CCC(=O)N1Cc1cccc(Cl)c1` (stereo not shown) [FP 240, 2-{1-[(3-Chlorophenyl)methyl]-5-oxopyrrolidin-2-yl}-N-cyclopropyl-2-oxoacetamide] the EC50 [1] was 1000 to 10000 nM and the IC50 (PLA2G16) was < 1000 nM.
In the case of `CC(C)OCCCNC(=O)C(=O)[C@H]1CCC(=O)N1Cc1ccccc1` [FP 301, 2-[(2R)-1-Benzyl-5-oxopyrrolidin-2-yl]-2-oxo-N-[3-(propan-2-yloxy)propyl]acetamide], the EC50 [1] is reported as < 1000 nM and the IC50 (PLA2G16) is reported as < 1000 nM.
In the case of `CC(C)CNC(=O)C(=O)C(C)N(C=O)C1CCCCC1` (stereo not shown) [FP 15, 3-(N-Cyclohexylformamido)-N-(2-methylpropyl)-2-oxobutanamide], the EC50 [1] is reported as < 1000 nM and the IC50 (PLA2G16) is reported as < 1000 nM.
For `O=C(N[C@@H]1C[C@@H]1F)C(=O)[C@H]1CCC(=O)N1Cc1ccccc1` [FP 267, 2-[(2R)-1-Benzyl-5-oxopyrrolidin-2-yl]-N-[(1R,2S)-2-fluorocyclopropyl]-2-oxoacetamide], the EC50 [1] was < 1000 nM and the IC50 (PLA2G16) was < 1000 nM.
`CC(C(=O)C(=O)NCCC1CCOCC1)N(C=O)C1CCCCC1` (stereo not shown) [FP 112, 3-(N-Cyclohexylformamido)-N-[2-(oxan-4-yl)ethyl]-2-oxobutanamide] was tested, and the EC50 [1] was 1000 to 10000 nM and the IC50 (PLA2G16) was < 1000 nM.
`CC(C)CC(=O)N1CC(NC(=O)C(=O)[C@H]2CCC(=O)N2Cc2ccccc2)C1` [FP 317, 2-[(2R)-1-Benzyl-5-oxopyrrolidin-2-yl]-N-[1-(3-methylbutanoyl)azetidin-3-yl]-2-oxoacetamide] was tested, and the EC50 [1] was 1000 to 10000 nM and the IC50 (PLA2G16) was < 1000 nM.
In the case of `O=C(NCc1cccc(=O)[nH]1)C(=O)C1CCC(=O)N1Cc1ccc(Cl)cc1` (stereo not shown) [FP 247, 2-{1-[(4-Chlorophenyl)methyl]-5-oxopyrrolidin-2-yl}-2-oxo-N-[(6-oxo-1,6-dihydropyridin-2-yl)methyl]acetamide], the EC50 [1] is reported as 1000 to 10000 nM and the IC50 (PLA2G16) is reported as < 1000 nM.
`O=C(NC1CCCC1)C(=O)C1CCC(=O)N1CC1CC1` (stereo not shown) [FP 254, N-Cyclopentyl-2-[1-(cyclopropylmethyl)-5-oxopyrrolidin-2-yl]-2-oxoacetamide] was tested, and the EC50 [1] was 1000 to 10000 nM and the IC50 (PLA2G16) was < 1000 nM.
With `CC(OCC1CCOCC1)C(=O)C(=O)NCC1CC1` (stereo not shown) [FP 121, N-(Cyclopropylmethyl)-3-[(oxan-4-yl)methoxy]-2-oxobutanamide] the EC50 [1] was 1000 to 10000 nM and the IC50 (PLA2G16) was < 1000 nM.
In the case of `CCC(=O)N(C)C(C)C(=O)C(=O)NCC1CCCCC1` (stereo not shown) [FP 145, N-(Cyclohexylmethyl)-3-(N-methylpropanamido)-2-oxobutanamide], the EC50 [1] is reported as 1000 to 10000 nM and the IC50 (PLA2G16) is reported as < 1000 nM.
`CC(C(=O)C(=O)NCC1CCCCC1)N(C=O)CC(F)(F)F` (stereo not shown) [FP 50, N-(Cyclohexylmethyl)-2-oxo-3-[N-(2,2,2-trifluoroethyl)formamido]butanamide] was tested, and the EC50 [1] was < 1000 nM and the IC50 (PLA2G16) was < 1000 nM.
